The source of these data is article PMC8010149, “A Therapeutic Strategy to Combat HIV-1 Latently Infected Cells With a Combination of Latency-Reversing Agents Containing DAG-Lactone PKC Activators” (Frontiers in Microbiology, 2021).

Each structure is given as a SMILES string. pEC50: −log10 of the molar value.

In series [1] the test system is HIV-1 latently infected ACH-2 cells. As to the kind of experiment: HIV-1 latency reversal, p24 antigen in supernatant, ACH-2 cells. The class given is cell-based. The settings on record: Human immunodeficiency virus 1, ACH-2, 48 h. As for the experimental part: (§1) The reactivation of HIV-1 from latently infected cells was determined by intracellular p24 protein expression and quantification of p24 antigen in the supernatant (ACH-2 and U1 cells), or by changes in intracellular green fluorescent protein (GFP) expression (J-Lat 10.6 cells). J-Lat ([Jordan et al., 2003]), ACH-2, or U1 cells (5 × 10^5 cells/ml) were seeded in 96-well plates and incubated with different drug concentrations for 24 h to collect the cells. The supernatant was collected after 48 h. The increase in supernatant p24 antigen levels was measured using a Lumipulse G1200 (FUJIREBIO, Tokyo, Japan). J-Lat cells (5 × 10^5 cells/ml) were placed in 48-well plates and incubated with different drug concentrations for 24 h. Intracellular p24 protein expression and GFP-positive cells were analyzed by flow cytometry.

The next series relates to BALB/c mice. Put plainly: In vivo acute toxicity (24 h) in BALB/c mice. The settings on record: intraperitoneal, 100 μg/kg–10 mg/kg. From the text:
BALB/c mice were purchased from Charles River Laboratories Japan, Inc. (Yokohama, Japan). Female mice at 5 weeks of age were used for the experiments. The mice were housed and monitored in our animal research facility according to the institutional guidelines. All experimental procedures and protocols were approved by the Institutional Animal Care and Use Committee of Kumamoto University.

In series [2] the test system is CD4+ or CD8+ primary T cells. Put plainly: T cell activation, CD69 expression on CD4+ or CD8+ primary T cells. The series is classed as cell-based, human. The conditions noted are these: 1 μM, 24 h, compared to prostratin and PEP005. As for the experimental part: (§2) The amount of intracellular HIV-1 p24 and the active form of caspase-3 were determined by flow cytometry, as previously described ([Matsuda et al., 2015], [2019]). In brief, ACH-2 and U1 cells (2.5 × 10^5 cells/ml) were fixed with 1% paraformaldehyde/PBS for 20 min and permeabilized with Flow Cytometry Perm Buffer (TONBO Biosciences, San Diego, CA, United States). After 5 min of incubation at room temperature, the cells were stained with FITC anti-HIV-1 p24 (24-4) monoclonal antibody (mAb; Santa Cruz Biotechnology, Dallas, TX, United States) or Alexa Fluor 647-conjugated anti-active caspase-3 (C92-605) mAb (BD Pharmingen, San Diego, CA, United States) for 30 min on ice. For T cell activation and exhaustion marker staining, PBMCs from healthy donors separated by the above density gradient centrifugation method were incubated with fixable viability stain Ghost Dye 780 (TONBO Biosciences) for 30 min on ice. […] Next, the cells were analyzed using BD FACSVerse (BD Biosciences). […] The collected data were analyzed using FlowJo software (Tree Star, San Carlos, CA, United States).

In another series the test system is J-Lat 10.6 cells. The class given is cell-based, HIV-1. The method, then: The reactivation of HIV-1 from latently infected cells was determined by intracellular p24 protein expression and quantification of p24 antigen in the supernatant (ACH-2 and U1 cells), or by changes in intracellular green fluorescent protein (GFP) expression (J-Lat 10.6 cells). […] The supernatant was collected after 48 h. The increase in supernatant p24 antigen levels was measured using a Lumipulse G1200 (FUJIREBIO, Tokyo, Japan). […] Intracellular p24 protein expression and GFP-positive cells were analyzed by flow cytometry.
Differences between groups were analyzed for statistical significance using unpaired t-tests. Statistical significance was set at p < 0.05. Statistical analyses were performed using GraphPad Prism version 8 (GraphPad Software, La Jolla, CA, United States). CompuSyn software, based on the quantitative analysis of dose-effect relationships between multiple drugs by Chou and Talalay, was utilized to determine the synergism or antagonism of drug combinations ([Chou and Talalay, 1984]). To confirm synergy, this software calculates combination index (CI) values, which further assist in determining the nature of the combination compared to single drug effects. A CI value <1 indicates synergistic effects.

The next series has as its system U937 cells. As to the kind of experiment: Active caspase-3 by flow cytometry in U937 cells. The class given is cell-based. The settings on record: 10 μM, 24 h. A general note: Flow cytometry measures light scatter and fluorescence of single cells or particles in a stream.
The next series has as its system ACH-2 cells. As to the kind of experiment: Active caspase-3 by flow cytometry in ACH-2 cells. The settings on record: 10 µM, 24 h. The class given is cell-based. The method, then: as §2
Series [3] concerns HIV-1 latently infected U1 cells. Put plainly: HIV-1 latency reversal, p24 antigen in supernatant, U1 cells. The series is classed as cell-based. The conditions noted are these: Human immunodeficiency virus 1, 48 h. The method, then: as §1
A further series concerns A3.01 cells. Put plainly: Active caspase-3 by flow cytometry in A3.01 cells. The class given is cell-based. The conditions noted are these: 10 μM, 24 h.

In general, pEC50 refers to the EC50 on a negative log10 scale, so that one unit is a factor of ten. For `CCCC(CCC)C(=O)OCC1(CO)CC(=C(C)C)C(=O)O1` (stereo not shown) [YSE028], the negative logarithm of the EC50 (pEC50) in series [1] is 6.06; in series [3], 5.74. In addition, the survival entry in the series on BALB/c mice is given as “all of them survived”. The “CD69+ cells in primary T cells (global T cell activation)” value in series [2] is listed as “less effect”. In addition, in the series on J-Lat 10.6 cells (J-Lat 10.6 cells, 100–400 nM, 24 h), the “number of GFP+ cells” value was determined as 5.8%. Also, the “LRA activity in the presence of 10% mouse serum versus 10% FBS” value with J-Lat 10.6 cells (J-Lat 10.6 cells, 24 h, GFP-positive cells) was “drastically decreased”. The “reactivation after short-term exposure” value with J-Lat 10.6 cells (J-Lat cells, exposure 1 h, wash-out, analysed after 24 h) was “successfully reactivated”. In addition, the results for the caspase-3 activation in the series with U937 cells, in the series with ACH-2 cells and in the series with A3.01 cells were 6.35%, 17.85% and 5.81%, respectively.
